Measured values as given in publication PMC6474902, “Examination of novel 4-aminoquinoline derivatives designed and synthesized by a hybrid pharmacophore approach to enhance their anticancer activities” (Scientific Reports, 2019).
Entries after “also recorded” stand apart in the source; their conditions may differ. Where two headings read alike, the source gives them in different places.

Tests used:
HeLa = experiment: Combination with bortezomib, cell death; assay type: cell-based, human; conditions: 48 h post-treatment; BTZ 6 nM, compound 13 0.75 µM, alone or combined
lysosomal volume = test system: lysosomal volume; design: method as in PMID 16137197; conditions: cited from earlier work
MCF10A = experiment: SRB antiproliferative/antigrowth assay, non-cancer cells; assay type: cell-based, human; conditions: Homo sapiens, MCF-10A, read-out: GI50 MCF10A
Procedure: (§1) The antigrowth effects of 4-piperazinylquinoline sulfonyl analogs on human breast tumor cells was initially evaluated using MDA-MB468 (a PTEN defective, EGFR positive breast adenocarcioma), MDA-MB231 (p53 and pRB mutated, triple-negative breast carcinoma), and MCF7 (p53+/−, invasive ductal breast carcinoma) cell lines. In addition, the cytotoxicity of all the compounds was also evaluated with the 184B5 and MCF10A non-cancer immortalized breast epithelial cell lines, to determine if these newly synthesized compounds have differential cytotoxic effects on cancer and non-cancer cells. The panel of three breast cancer cell lines with different genetic back ground and the well-studied two non-cancer immortalized breast cell lines would provide insights into the efficacy and toxicity of the test compounds in the different genetic background and at different stages of tumor development. The dose response of each cell line was established by determining the number of viable cells after 48 h of continuous drug treatment against seven different concentrations (100 µM to 0.0064 µM) of each compound. The reading of sulphorodamine B (SRB) staining is known to accurately reflect the level of total cellular macromolecules/cell growth/proliferation[6],[23]. […] The data for CQ and cisplatin were included as references. […] The differences in the GI50 values may be attributable to such factors as the nature of the sulfonyl group and the halogen substitution on the 7th position of the 4-piperazinylquinoline ring system, and the genetic and biochemical background of the cell lines.
(§2) Antiproliferative/antigrowth effects were determined by a SRB-based protocol[6],[23]. For a typical screening experiment, 5,000–10,000 cells were inoculated into 100 µL medium per well of a 96-well microtiter plate as described previously. Briefly, after the inoculation, the microtiter plate was incubated at 37 °C, 5% CO2, 95% air and 100% relative humidity for 24 h, prior to addition of experimental drugs. Some of the sample wells were fixed with 25 µL of 50% tricholoroacetic acid (TCA) as a control of the cell population for each cell line at the time of drug addition (Tz). An aliquot of the frozen stock was thawed and diluted to a desired final maximum test-concentration with complete medium. Two to ten-fold serial dilutions were made to provide a total of seven drug concentrations (and a control [C]). Following addition of drugs, the culture plate was incubated for additional 48 h. Cells were fixed in situ by slowly adding 25 µL of ice-cold 50% (w/v) TCA (final concentration, 10% TCA), and were then incubated for 60 min at 4 °C. The supernatant was discarded, and the plate was washed five times with tap water, followed by air-dry. 50 µL of SRB solution at 0.4% (w/v) in 1% acetic acid was added to each well, and the plate was incubated for >30 min at room temperature. Unbound SRB was removed by five washes with tap water, followed by air-drying. The cells “stained” with SRB were solubilized with 10 mM trizma base, and the absorbance was read on an automated plate reader at a wavelength of 515–564 nm. The relative growth rate (%) was calculated for each of the compound concentrations according to the following formula: (Ti−Tz)/(C−Tz)×100
(§3) In the formula, time zero (Tz), control growth (C), and OD for different concentration of tested compounds (Ti). The GI50 for each compound was obtained from a non-linear Sigmoidal dose-response (variable slope) curve which is fitted by GraphPad Prism v.4.03 software. Values were calculated for each of these parameters if the level of activity was reached. However, if the effect was not reached or was exceeded, the value for that parameter was expressed as greater or less than the maximum or minimum concentration tested.

184B5 = experiment: as above; assay type: cell-based, human; conditions: Homo sapiens, 184B5, 48 h, read-out: GI50 184B5
Procedure: as §1, §2, §3

MDA-MB231 = experiment: SRB antiproliferative/antigrowth assay; assay type: cell-based, human; conditions: for GI50: Homo sapiens, read-out: GI50 MB231
Procedure: as §1, §2, §3

MDA-MB468 = experiment: SRB antiproliferative/antigrowth assay; assay type: cell-based, human; conditions: Homo sapiens, read-out: GI50 MB468
Procedure: as §1, §2, §3

MCF7 = experiment: SRB antiproliferative/antigrowth assay; assay type: cell-based, human
Procedure: as §1, §2, §3

[1] = test system: MDA-MB231, MDA-MB468, MCF7 breast cancer cells; 184B5 and MCF10A non-cancer breast cells; experiment: SRB assay, panel of breast cancer and non-cancer breast cell lines; assay type: cell-based, human; conditions: judged from GI50 values of Table 1
Procedure: as §1, §2, §3

HeLa cells = experiment: Sequential treatment with monastrol and compound 13, DNA content; assay type: cell-based, human; conditions: 100 μM monastrol, 18 h
Procedure: 0 h 2 h post-monastrol 4 h post-monastrol 6 h post-monastrol […]
death. HeLa cells, treated with 100 μM of monastrol for 18 h (defined 0 h), were released into complete medium in the absence (sham) or presence of 10 μM compound 13 (VR23). Note that monastrol arrested cells […]

[2] = 48 h, SRB, 48 h post-treatment, non-cancer breast epithelial cells
[3] = SRB, 48 h post-treatment, non-cancer breast epithelial cells
[4] = MDA-MB-231, 48 h, SRB, 48 h post-treatment, mean of triplicates of at least two experiments
[5] = MDA-MB-468, 48 h, SRB, 48 h post-treatment, mean of triplicates of at least two experiments
[6] = Homo sapiens, MCF7, 48 h, SRB, 48 h post-treatment, mean of triplicates of at least two experiments, read-out: GI50 MCF7
[7] = MDA-MB-231, SRB, 48 h post-treatment, mean of triplicates of at least two experiments
[8] = MDA-MB-468, SRB, 48 h post-treatment, mean of triplicates of at least two experiments
[9] = Homo sapiens, MCF7, SRB, 48 h post-treatment, mean of triplicates of at least two experiments, read-out: GI50 MCF7

Compound | GI50 (184B5) [µM] | preferential antigrowth effect on cancer versus non-cancer cells (in words) [1] | melting point [°C] | GI50 (MCF10A; [2]) [µM] | GI50 (184B5; [3]) [µM] | GI50 (MDA-MB231; [4]) [µM] | GI50 (MDA-MB468; [5]) [µM] | GI50 (MCF7; [6]) [µM] | also measured
CC(C)C[C@H](NC(=O)[C@H](Cc1ccccc1)NC(=O)c1cnccn1)B(O)O [Bortezomib, bortezomib, reference compound] | – | – | – | – | – | – | – | – | cell death (HeLa): neither 6 nM BTZ nor 0.75 µM of compound 13 resulted in substantial HeLa cell death
CCN(CC)CCCC(C)Nc1ccnc2cc(Cl)ccc12 (centres unmarked) [Chloroquine, reference compound] | 76.1 ± 1.1 | – | – | – | – | – | – | – | lysosomal volume (lysosomal volume): causes an increase in lysosomal volume; GI50 (MCF10A; 48 h): 81.3 ± 1.3 µM; GI50 (MDA-MB231; MDA-MB-231, 48 h): 22.5 ± 1.4 µM; GI50 (MDA-MB468; MDA-MB-468, 48 h): 28.6 ± 1.3 µM; GI50 (MCF7; Homo sapiens, MCF7, 48 h, read-out: GI50 MCF7, SRB, 48 h post-treatment, mean of triplicates of at least two experiments): 38.4 µM; GI50 (MCF7; read-out: GI50 MCF7, SRB, 48 h post-treatment, mean of triplicates of at least two experiments): 38.4 ± 1.2 µM
CS(=O)(=O)N1CCN(c2ccnc3cc(C(F)(F)F)ccc23)CC1 [Compound 16, 4-(4-Methanesulfonyl-piperazin-1-yl)-7-trifluoromethyl-quinoline] | – | effective and preferential antigrowth effects on cancer cells; also recorded: stronger antigrowth/antiproliferation activity against cancer cells than non-cancer cells | 116 to 118 | 75.8 ± 0.8 | 93.9 ± 0.9 | 44.4 ± 0.9 | 28.6 ± 0.7 | 25.6 ± 0.3 | –
O=[N+]([O-])c1ccc(S(=O)(=O)NCCCNc2ccnc3cc(C(F)(F)F)ccc23)c([N+](=O)[O-])c1 [Compound 40, 2,4-Dinitro-N-[3-(7-trifluoromethyl-quinolin-4-ylamino)-propyl]-benzenesulfonamide] | 15.9 ± 0.9 | effective and preferential antigrowth effects on cancer cells; also recorded: stronger antigrowth/antiproliferation activity against cancer cells than non-cancer cells | 198 to 200 | – | – | – | – | – | GI50 (MCF10A; [3]): 22.3 ± 0.8 µM; increase in antigrowth activity against MDA-MB231 compared to mono nitro substituted compounds (30 and 39) (MDA-MB231): 1.7–2.3 fold; GI50 (MDA-MB231; [7]): 8.9 ± 0.8 µM; GI50 (MDA-MB468; [8]): 8.5 ± 0.4 µM; GI50 (MCF7; [9]): 5.6 ± 0.3 µM
CN(C)c1cccc2c(S(=O)(=O)N3CCN(c4ccnc5cc(Cl)ccc45)CC3)cccc12 [Compound 14, 5-(4-(7-Chloroquinolin-4-yl)piperazin-1-ylsulfonyl)-N,N-dimethylnaphthalen-1-amine] | – | effective and preferential antigrowth effects on cancer cells; also recorded: stronger antigrowth/antiproliferation activity against cancer cells than non-cancer cells | 145 to 147 | 32.2 ± 0.3 | 28.3 ± 0.3 | 35 ± 0.8 | 27.5 ± 0.7 | 22.3 ± 0.2 | –
O=[N+]([O-])c1ccc(S(=O)(=O)N2CCN(c3ccnc4cc(C(F)(F)F)ccc34)CC2)c([N+](=O)[O-])c1 [Compound 22, 4-[4-(2,4-Dinitro-benzenesulfonyl)-piperazin-1-yl]-7-trifluoromethyl-quinoline] | 37.8 ± 0.4 | effective and preferential antigrowth effects on cancer cells; also recorded: stronger antigrowth/antiproliferation activity against cancer cells than non-cancer cells | 178 to 180 | – | – | – | – | – | GI50 (MCF10A; [3]): 35.4 ± 0.5 µM; GI50 (MDA-MB231; [7]): 24.3 ± 0.6 µM; GI50 (MDA-MB468; [8]): 19.2 ± 0.6 µM; GI50 (MCF7; [9]): 10.8 ± 0.1 µM
CN(C)c1cccc2c(S(=O)(=O)NCCCNc3ccnc4cc(Cl)ccc34)cccc12 [Compound 32, 5-Dimethylamino-naphthalene-1-sulfonic acid [3-(7-chloro-quinolin-4-ylamino)-propyl]-amide] | – | loss of preferential antigrowth effects on cancer cells | 190 to 192 | 2.6 ± 0.1 | 1.7 ± 0.1 | 12.7 ± 1 | 4.6 ± 0.4 | 2.45 | GI50 (MCF7; SRB, 48 h post-treatment, mean of triplicates of at least two experiments, read-out: GI50 MCF7): 2.5 ± 0.1 µM; increase in potency against MCF7 compared to CQ (MCF7; ratio of GI50 values): 15.7 fold
CCOC(=O)C1=C(C)NC(=S)NC1c1cccc(O)c1 (centres unmarked) [monastrol] | – | – | – | – | – | – | – | – | cell cycle arrest (HeLa cells): arrested cells at G2/M
